From US20020051978A1, “Methods and compositions for the identification, assessment, prevention and therapy of human cancers” (priority 2000, published 2002)
Values joined by “and” are separate entries in the source; they are usually repeats but may differ in a detail not shown here. Equal values may be shown once. Read-outs that look alike come from different tables or passages of the source.

Assays:
tumor = conditions: animal models; cited from earlier work
[1] = test system: 60 cancer cell lines (NCI 60 cancer cell line series); assay: NCI-DTP in vitro cancer screen, sulforhodamine B (SRB) growth inhibition, 48 hour exposure; type: cell-based, human; set-up: key to sensitivity class Ovarian OVCAR-8 CL6005 / sensitivity class Ovarian SK-OV-3 CL6011 / sensitivity class Prostate DU-145 CL11003 / sensitivity class NSCLC NCI-H522 CL1003 / sensitivity class Ovarian IGROV1 CL6010 / sensitivity class Ovarian OVCAR-4 CL6002 / sensitivity class Prostate PC-3(I) CL11001 / sensitivity class Renal A498 CL9013 / sensitivity class Renal SN12C CL9008: sensitivity class: 1 = Low, 2 = Medium, 3 = High; conditions: for sensitivity class NSCLC NCI-H23(I) CL1001: cell line NSCLC NCI-H23(I); for sensitivity class NSCLC NCI-H522 CL1003: cell line NSCLC NCI-H522, CL1003; for sensitivity class Ovarian IGROV1 CL6010: cell line Ovarian IGROV1, CL6010; for sensitivity class Ovarian OVCAR-4 CL6002: cell line Ovarian OVCAR-4, CL6002; for sensitivity class Ovarian OVCAR-5 CL6003: cell line Ovarian OVCAR-5, CL6003; for sensitivity class Ovarian OVCAR-8 CL6005: cell line Ovarian OVCAR-8, CL6005; for sensitivity class Prostate DU-145 CL11003: cell line Prostate DU-145, CL11003; for sensitivity class Renal A498 CL9013: cell line Renal A498, CL9013
How it was run: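 Sixty NCI-DTP cancer lines plated at line-specific densities, dosed on day 1 in duplicate with 5 concentrations at ten-fold intervals. After 48 h exposure, cell mass read by SRB staining; GI50 (50% growth inhibition) taken from dose-response curves and expressed as -log GI50.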

[2] = test system: 60 cancer cell lines (NCI 60 cancer cell line series); conditions: cited from earlier work

For `CC(=O)O[C@@]12CO[C@@H]1C[C@H](O)[C@@]1(C)C(=O)[C@H](O)C3=C(C)[C@@H](OC(=O)[C@H](O)[C@@H](NC(=O)OC(C)(C)C)c4ccccc4)C[C@@](O)([C@@H](OC(=O)c4ccccc4)[C@H]21)C3(C)C` [Taxotere, docetaxel], the anti-tumor activity (tumor) is listed as “good anti-tumor activity”.

In the case of `N.N.[Cl][Pt][Cl]` [cisplatin, cis-Diamminedichloroplatinum (II), reference compound], the “classification of cell line as Low(1), Medium(2) or High(3) sensitivity to compound” value (“classification of cell line” below) ([1]; Breast BT-549 (CL5013)) is reported as 2, the “classification of cell line” value ([1]; Breast HS-578T CL5006) is reported as 2 and the “classification of cell line” value ([1]; Breast MCF7/ADRr (CL5002)) is reported as 2. The “classification of cell line” value ([1]; Breast MDA-MB-231 CL5005) was 1, the “classification of cell line” value ([1]; Breast MDA-N CL5012) was 2 and the “classification of cell line” value ([1]; Breast T-47D (CL5014)) was 1. The “classification of cell line” value ([1]; CNS SF-268 CL12014) was 3, the “classification of cell line” value ([1]; CNS SF-539 CL12016) was 2 and the “classification of cell line” value ([1]; CNS SNB-75(I) CL12005) was 2. The “classification of cell line” value ([1]; CNS U251(I) CL12009) was 2, the “classification of cell line” value ([1]; Colon COLO-250 CL4010) was 1 and the “classification of cell line” value ([1]; Colon HCC-2998 (CL4002)) was 2. For the same compound, the “classification of cell line” value ([1]; Colon HCT-15 CL4015) was 1, the “classification of cell line” value ([1]; Colon HT29(I) CL4001) was 1 and the “classification of cell line” value ([1]; Colon SW-620 (CL4009)) was 2. The “classification of cell line” value ([1]; Leukemia HL-60(I) (CL7008)) was 3, the “classification of cell line” value ([1]; Leukemia K562(I) CL7005) was 2 and the “classification of cell line” value ([1]; Leukemia RPMI-8226(I) (CL7010)) was 2. For the same compound, the “classification of cell line” value ([1]; Melanoma LOX IMVI CL10001) was 3, the “classification of cell line” value ([1]; Melanoma M14 (CL10014)) was 2 and the “sensitivity class NSCLC NCI-H23(I) CL1001” value [1] was 3. The “sensitivity class NSCLC NCI-H460 CL1021” value ([1]; cell line NSCLC NCI-H460, CL1021) was 3, the “sensitivity class NSCLC NCI-H522 CL1003” value [1] was 2 and the “sensitivity class Ovarian IGROV1 CL6010” value [1] was 2. For the same compound, the “sensitivity class Ovarian OVCAR-4 CL6002” value [1] was 2, the “sensitivity class Ovarian OVCAR-5 CL6003” value [1] was 2 and the “sensitivity class Ovarian OVCAR-8 CL6005” value [1] was 2. The “sensitivity class Prostate DU-145 CL11003” value [1] was 2, the “sensitivity class Renal A498 CL9013” value [1] was 1 and the “sensitivity class Renal RXF-393 CL9016” value ([1]; cell line Renal RXF-393, CL9016) was 2. The “sensitivity class Renal UO-31 CL9004” value ([1]; cell line Renal UO-31, CL9004) was 2, the “-Log (GI50)” value ([2]; Breast MCF7(I) (CL5001)) was 5.5 and the “-Log (GI50)” value ([2]; Ovarian SK-OV-3 CL6011) was 5.2.

With Bleomycin the “classification of cell line” value ([1]; Breast MCF7(I) (CL5001)) was 2, the “classification of cell line” value ([1]; Breast MCF7/ADRr (CL5002)) was 2 and the “classification of cell line” value ([1]; Breast MDA-MB-231 CL5005) was 1. For the same compound, the “classification of cell line” value ([1]; Breast MDA-MB-435 (CL5011)) was 1, the “classification of cell line” value ([1]; Breast MDA-N CL5012) was 1 and the “classification of cell line” value ([1]; Breast T-47D (CL5014)) was 2. The “classification of cell line” value ([1]; CNS SF-268 CL12014) was 2, the “classification of cell line” value ([1]; CNS SF-295 CL12015) was 3 and the “classification of cell line” value ([1]; CNS SF-539 CL12016) was 3. For the same compound, the “classification of cell line” value ([1]; CNS SNB-19 (CL12002)) was 2, the “classification of cell line” value ([1]; CNS SNB-75(I) CL12005) was 2 and the “classification of cell line” value ([1]; CNS U251(I) CL12009) was 2. The “classification of cell line” value ([1]; Colon COLO-250 CL4010) was 2, the “classification of cell line” value ([1]; Colon HCT-15 CL4015) was 2 and the “classification of cell line” value ([1]; Colon HCT-116 (CL4003)) was 2. The “classification of cell line” value ([1]; Colon HT29(I) CL4001) was 1, the “classification of cell line” value ([1]; Colon KM12 (CL4017)) was 1 and the “classification of cell line” value ([1]; Colon SW-620 (CL4009)) was 2. The “classification of cell line” value ([1]; Leukemia CCRF-CEM(I) (CL7003)) was 2, the “classification of cell line” value ([1]; Leukemia HL-60(I) (CL7008)) was 2 and the “classification of cell line” value ([1]; Leukemia K562(I) CL7005) was 2. For the same compound, the “classification of cell line” value ([1]; Leukemia MOLT-4 (CL7006)) was 2, the “classification of cell line” value ([1]; Leukemia SR CL7019) was 3 and the “classification of cell line” value ([1]; Melanoma LOX IMVI CL10001) was 3. For the same compound, the “classification of cell line” value ([1]; Melanoma M14 (CL10014)) was 2, the “classification of cell line” value ([1]; Melanoma MALME-3M CL10002) was 2 and the “sensitivity class NSCLC NCI-H23(I) CL1001” value [1] was 2. For the same compound, the “sensitivity class NSCLC NCI-H332M CL1017” value ([1]; cell line NSCLC NCI-H332M, CL1017) was 1, the “sensitivity class NSCLC NCI-H522 CL1003” value [1] was 2 and the “sensitivity class Ovarian IGROV1 CL6010” value [1] was 2. For the same compound, the “sensitivity class Ovarian OVCAR-3 CL6001” value ([1]; cell line Ovarian OVCAR-3, CL6001) was 2, the “sensitivity class Ovarian OVCAR-4 CL6002” value [1] was 2 and the “sensitivity class Ovarian OVCAR-5 CL6003” value [1] was 2. For the same compound, the “sensitivity class Ovarian OVCAR-8 CL6005” value [1] was 2, the “sensitivity class Ovarian SK-OV-3 CL6011” value ([1]; cell line Ovarian SK-OV-3, CL6011) was 2 and the “sensitivity class Prostate DU-145 CL11003” value [1] was 2. The “sensitivity class Prostate PC-3(I) CL11001” value ([1]; cell line Prostate PC-3(I), CL11001) was 2, the “sensitivity class Renal 786-O CL9018” value ([1]; cell line Renal 786-O, CL9018) was 2 and the “sensitivity class Renal A498 CL9013” value [1] was 2. For the same compound, the “sensitivity class Renal ACHN CL9023” value ([1]; cell line Renal ACHN, CL9023) was 3, the “sensitivity class Renal SN12C CL9008” value ([1]; cell line Renal SN12C, CL9008) was 2 and the “sensitivity class Renal TK10 CL9024” value ([1]; cell line Renal TK10, CL9024) was 1. For the same compound, the “1 # of Low” value ([1]; number of the 60 cell lines classified Low (1) sensitivity) was 12, the “-Log (GI50)” value ([2]; Breast BT-549 (CL5013)) was 5.0 and 5.1 and the “-Log (GI50)” value ([2]; Breast MCF7(I) (CL5001)) was 5.7 and 5.5. For the same compound, the “-Log (GI50)” value ([2]; Breast MCF7/ADRr (CL5002)) was 6.1 and 6.0, the “-Log (GI50)” value ([2]; Breast MDA-MB-435 (CL5011)) was 4.7 and 4.6 and the “-Log (GI50)” value ([2]; Breast MDA-N CL5012) was 4.8 and 4.6. The “-Log (GI50)” value ([2]; Breast T-47D (CL5014)) was 5.3 and 5.2, the “-Log (GI50)” value ([2]; CNS SF-295 CL12015) was 7.0 and 7.2 and the “-Log (GI50)” value ([2]; CNS SF-539 CL12016) was 7.7. For the same compound, the “-Log (GI50)” value ([2]; CNS SNB-19 (CL12002)) was 5.4 and 5.5, the “-Log (GI50)” value ([2]; Colon COLO-250 CL4010) was 5.2 and 5.3 and the “-Log (GI50)” value ([2]; Colon HCC-2998 (CL4002)) was 5.0 and 4.7. The “-Log (GI50)” value ([2]; Colon HCT-116 (CL4003)) was 6.4 and 6.2, the “-Log (GI50)” value ([2]; Colon HT29(I) CL4001) was 4.9 and 4.8 and the “-Log (GI50)” value ([2]; Colon KM12 (CL4017)) was 4.9 and 4.8. For the same compound, the “-Log (GI50)” value ([2]; Colon SW-620 (CL4009)) was 5.1 and 5.0, the “-Log (GI50)” value ([2]; Leukemia HL-60(I) (CL7008)) was 5.2 and 5.3 and the “-Log (GI50)” value ([2]; Leukemia MOLT-4 (CL7006)) was 5.9 and 6.2. For the same compound, the “-Log (GI50)” value ([2]; Leukemia RPMI-8226(I) (CL7010)) was 4.8 and 4.9, the “-Log (GI50)” value ([2]; Melanoma LOX IMVI CL10001) was 6.8 and the “-Log (GI50)” value ([2]; Melanoma M14 (CL10014)) was 5.8 and 5.5. For the same compound, the “-Log (GI50)” value ([2]; NSCLC NCI-H23(I) CL1001) was 6.2 and 6.3, the “-Log (GI50)” value ([2]; NSCLC NCI-H332M CL1017) was 4.8 and 4.5 and the “-Log (GI50)” value ([2]; Ovarian OVCAR-3 CL6001) was 5.3. For the same compound, the “-Log (GI50)” value ([2]; Ovarian OVCAR-8 CL6005) was 5.5 and 5.8, the “-Log (GI50)” value ([2]; Ovarian SK-OV-3 CL6011) was 5.2 and 5.4 and the “-Log (GI50)” value ([2]; Prostate DU-145 CL11003) was 5.4 and 5.5. The “-Log (GI50)” value ([2]; Prostate PC-3(I) CL11001) was 5.1 and 5.3, the “-Log (GI50)” value ([2]; Renal ACHN CL9023) was 8.1 and 7.9 and the “-Log (GI50)” value ([2]; Renal RXF-393 CL9016) was 6.7 and 6.6. For the same compound, the “-Log (GI50)” value ([2]; Renal SN12C CL9008) was 6.0 and 5.9 and the “-Log (GI50)” value ([2]; Renal TK10 CL9024) was 5.0 and 4.7.
